US20110206792A1, “COMPOSITIONS COMPRISING VITAMINS” (priority 2008, published 2011)

Test: Stability studies for Melatonin, Resveratrol and L-ascorbic acid in cosmetic serum (HPLC with diode array detection, 55 days)
Format: physicochemical
Conditions: for concentration in the mixed formulation: formulation containing all three compounds, unchanged over 55 days; for change of concentration/percentage over 55 days: mixed versus single component formulation, 25° C. and 40° C.
Procedure: Stability studies for Melatonin, Resveratrol and L-ascorbic acid in cosmetic serum Object of this work was the studies related to the stability of Melatonin, Resveratrol and L-ascorbic acid when individually present in formulation in comparison with a formulation in which they are simultaneously mixed together, in order to explore the potential stabilization of L-ascorbic acid by Melatonin. The stability studies were performed at 25° C. (room temperature) and 40° C. (oven) for 55 days. Four formulations were analyzed: one mixture containing the three compounds together plus 3 formulations, which individually contained the three compounds. The excipients were all the same in the four formulations. The method employed to follow formulation stability is an HPLC method with diode array detection, under gradient conditions, as specified in the previous report. The results of these studies are shown in the graphs reported in FIGS. 10, 11 and 12 as well as in the following Tables 1, 2 and 3 where the percentages of the three compounds in the formulation (p/p) are plotted against time. In particular, the percentages were determined over 55 days, by comparison with reference standard compounds.

[1] = mix (three compounds together), T = 25° C., day 0
[2] = mix (three compounds together), T = 25° C., day 2
[3] = mix (three compounds together), T = 25° C., day 44
[4] = mix (three compounds together), T = 25° C., day 48
[5] = mix (three compounds together), T = 25° C., day 50
[6] = mix (three compounds together), T = 25° C., day 55
[7] = mix (three compounds together), T = 40° C., day 0
[8] = mix (three compounds together), T = 40° C., day 42
[9] = mix (three compounds together), T = 40° C., day 44
[10] = mix (three compounds together), T = 40° C., day 48
[11] = mix (three compounds together), T = 40° C., day 51
[12] = mix (three compounds together), T = 40° C., day 55
[13] = single component formulation, T = 25° C., day 0
[14] = single component formulation, T = 25° C., day 2
[15] = single component formulation, T = 25° C., day 44
[16] = single component formulation, T = 25° C., day 48
[17] = single component formulation, T = 25° C., day 50
[18] = single component formulation, T = 25° C., day 55
[19] = single component formulation, T = 40° C., day 0
[20] = single component formulation, T = 40° C., day 42
[21] = single component formulation, T = 40° C., day 44
[22] = single component formulation, T = 40° C., day 48
[23] = single component formulation, T = 40° C., day 51
[24] = single component formulation, T = 40° C., day 55

SMILES | concentration in the mixed formulation [%] | percentage of the compound in the formulation (p/p) [1] [%] | percentage of the compound in the formulation (p/p) [2] [%] | percentage of the compound in the formulation (p/p) [5] [%] | percentage of the compound in the formulation (p/p) [6] [%] | percentage of the compound in the formulation (p/p) [7] [%] | percentage of the compound in the formulation (p/p) [8] [%] | percentage of the compound in the formulation (p/p) [9] [%] | percentage of the compound in the formulation (p/p) [10] [%] | percentage of the compound in the formulation (p/p) [11] [%] | percentage of the compound in the formulation (p/p) [12] [%] | percentage of the compound in the formulation (p/p) [13] [%] | percentage of the compound in the formulation (p/p) [14] [%] | percentage of the compound in the formulation (p/p) [15] [%] | percentage of the compound in the formulation (p/p) [16] [%] | percentage of the compound in the formulation (p/p) [17] [%] | percentage of the compound in the formulation (p/p) [18] [%] | percentage of the compound in the formulation (p/p) [19] [%] | percentage of the compound in the formulation (p/p) [20] [%] | percentage of the compound in the formulation (p/p) [22] [%] | other results
COc1ccc2[nH]cc(CCNC(C)=O)c2c1 [Melatonin] | 0.20 | 0.20 | 0.25 | 0.23 | 0.20 | 0.18 | 0.17 | 0.18 | 0.14 | 0.18 | 0.20 | 0.28 | 0.33 | 0.30 | 0.26 | 0.31 | 0.30 | 0.26 | 0.25 | 0.29 | percentage of the compound in the formulation (p/p) [3]: 0.20%; percentage of the compound in the formulation (p/p) [4]: 0.20%; change of concentration/percentage over 55 days: does not change much; concentration in the single component formulation (same concentration found after 55 days of storage at 25° C. and 40° C.): 0.28%; percentage of the compound in the formulation (p/p) [21]: 0.25%; percentage of the compound in the formulation (p/p) [23]: 0.29%; percentage of the compound in the formulation (p/p) [24]: 0.28%
O=C1O[C@H]([C@@H](O)CO)C(O)=C1O [L-ascorbic acid] | 14.5 | 15.34 | 14.10 | 15.10 | 15.00 | 14.35 | 14.30 | 15.13 | 13.50 | 14.96 | 15.00 | 13.40 | 13.32 | 8.80 | 10.80 | 10.50 | 10.43 | 14.86 | 8.46 | 8.60 | change in L-ascorbic acid concentration (formulation containing all the three ingredients, 55 days): no change; loss of L-ascorbic acid (single component formulation, 25° C., 55 days): 22%; loss of L-ascorbic acid (single component formulation, 40° C., 55 days): 36%; percentage of the compound in the formulation (p/p) [23]: 9.00%; percentage of the compound in the formulation (p/p) [24]: 9.60%
Oc1ccc(C=Cc2cc(O)cc(O)c2)cc1 [Resveratrol] | 0.20 | 0.20 | 0.20 | 0.14 | 0.16 | 0.20 | 0.18 | 0.18 | 0.20 | 0.16 | 0.18 | 0.22 | 0.19 | 0.17 | 0.20 | 0.17 | 0.17 | 0.22 | 0.16 | 0.18 | degradation (in 55 days, in all the conditions, formulations kept at 25° C. and 40° C.): approximately 10%; percentage of the compound in the formulation (p/p) [3]: 0.14%; percentage of the compound in the formulation (p/p) [4]: 0.20%; change of concentration/percentage over 55 days: does not change significantly; percentage of the compound in the formulation (p/p) (single component formulation, T = 40° C., day 2): 0.19%; percentage of the compound in the formulation (p/p) [21]: 0.20%; percentage of the compound in the formulation (p/p) [23]: 0.20%; percentage of the compound in the formulation (p/p) [24]: 0.20%
